From ChEMBL document CHEMBL1149145, “Synthesis and selective inhibitory activity of 1-acetyl-3,5-diphenyl-4,5-dihydro-(1H)-pyrazole derivatives against monoamine oxidase” (J Med Chem, 2004) come the findings set out here.

The target in test [1] is Monoamine oxidase (Bos taurus). As to the kind of experiment: Inhibition of bovine monoamine oxidase.
Test [2] has as its target Amine oxidase [flavin-containing] A (Bos taurus) (UniProt P21398). As to the kind of experiment: Inhibition of bovine monoamine oxidase A.
The target of test [3] is Amine oxidase [flavin-containing] B (Bos taurus) (UniProt P56560). As to the kind of experiment: Inhibition of bovine monoamine oxidase B.
The target of test [4] is Amine oxidase [flavin-containing] A (Bos taurus) (UniProt P21398). As to the kind of experiment: Binding affinity was evaluated against bovine monoamino oxidase A.
The target in test [5] is Amine oxidase [flavin-containing] B (Bos taurus) (UniProt P56560). As to the kind of experiment: Binding affinity was evaluated against bovine monoamino oxidase B.

For orientation: IC50 means the midpoint of a concentration-inhibition curve. The low end stands for inhibition by little substance, the high end for a need for much substance. One may read the Ki as the equilibrium dissociation constant of an inhibitor or competing ligand from its target. Low readings indicate tighter binding, high ones weaker binding.

Sequence of Amine oxidase [flavin-containing] B (Bos taurus) (P56560 whole entry, looked up): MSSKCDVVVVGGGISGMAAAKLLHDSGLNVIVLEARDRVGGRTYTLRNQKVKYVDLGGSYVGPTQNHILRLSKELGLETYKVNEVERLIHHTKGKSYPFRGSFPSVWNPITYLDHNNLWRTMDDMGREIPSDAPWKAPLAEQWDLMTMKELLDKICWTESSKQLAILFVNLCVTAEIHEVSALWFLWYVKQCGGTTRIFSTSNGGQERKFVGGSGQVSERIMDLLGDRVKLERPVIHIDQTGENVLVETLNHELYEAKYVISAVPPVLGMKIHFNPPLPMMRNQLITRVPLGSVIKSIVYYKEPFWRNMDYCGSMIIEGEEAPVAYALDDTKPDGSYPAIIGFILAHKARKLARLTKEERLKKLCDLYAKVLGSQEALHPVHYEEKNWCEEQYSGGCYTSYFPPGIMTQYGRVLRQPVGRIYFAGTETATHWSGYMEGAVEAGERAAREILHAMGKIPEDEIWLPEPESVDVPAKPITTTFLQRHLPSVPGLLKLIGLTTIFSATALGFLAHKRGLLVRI

For `COc1ccc(C2CC(c3ccc(O)cc3O)=NN2C(C)=O)cc1` (stereo not drawn), the half-maximal inhibitory concentration (IC50) was found to be 10 µM in test [1], 0.009 µM in test [2] and 83 µM in test [3].

In the case of `CC(=O)N1N=C(c2ccc(O)cc2)CC1c1ccc(C)cc1` (stereo not drawn), the concentration for half-maximal inhibition (IC50) in test [1] worked out at 0.2 µM; in test [2], 0.1 µM; in test [3], 30 µM.

With `CC(=O)N1N=C(c2ccc(O)cc2)CC1c1cccc(Cl)c1` (stereo not drawn), the IC50 in test [1] came out at 12 µM; in test [2], 0.01 µM; in test [3], 25 µM.

Turning to `CC(=O)N1N=C(c2ccc(O)cc2)CC1c1cccc(C)c1` (stereo not drawn), the values for the 50% inhibitory concentration (IC50) in test [1], in test [2] and in test [3] were 9.5 µM, 0.008 µM and 19 µM, respectively.

Take `CC(=O)N1N=C(c2ccc(O)cc2O)CC1c1ccc(Cl)cc1` (stereo not drawn): the IC50 in test [1] was found to be 20 µM; in test [2], 0.01 µM; in test [3], 120 µM.

Turning to `CC(=O)N1N=C(c2ccc(O)cc2O)CC1c1ccc(C)cc1` (stereo not drawn), the IC50 in test [1] came to 9.5 µM; in test [2], 0.009 µM; in test [3], 42 µM.

On to `CC(=O)N1N=C(c2ccc(O)cc2)CC1c1ccccc1Cl` (stereo not drawn), for which the IC50 in test [1] was 50 µM; in test [2], 0.0086 µM; in test [3] it was 89 µM.

For `COc1ccc(C2CC(c3ccc(O)cc3)=NN2C(C)=O)c(OC)c1` (stereo not drawn), the values for the IC50 in test [1], in test [2] and in test [3] were 10 µM, 0.01 µM and 20 µM, respectively.

Regarding `COc1ccc(C2CC(c3ccc(O)cc3)=NN2C(C)=O)cc1` (stereo not drawn), the results for the IC50 in test [1], in test [2] and in test [3] were 3.6 µM, 0.009 µM and 7.2 µM, respectively.

For the compound `CC(=O)N1N=C(c2ccc(O)cc2)CC1c1ccc(Cl)cc1` (stereo not drawn), the IC50 in test [1] is 40 µM; in test [2] it was 0.1 µM; in test [3], 40 µM.

With `COc1ccccc1C1CC(c2ccc(O)cc2O)=NN1C(C)=O` (single isomer, unassigned; (+)), the figures for the inhibition constant Ki in test [4] and in test [5] were 0.007 µM and 270 µM, respectively.

For the compound `COc1ccccc1C1CC(c2ccc(O)cc2)=NN1C(C)=O` (single isomer, unassigned; (-)), the Ki in test [4] was determined as 0.002 µM; in test [5], 330 µM.

For the compound `COc1ccccc1C1CC(c2ccc(O)cc2O)=NN1C(C)=O` (single isomer, unassigned; (-)), the Ki turned out to be 0.004 µM in test [4] and 320 µM in test [5].

For the compound `COc1ccccc1C1CC(c2ccc(O)cc2)=NN1C(C)=O` (stereo in doubt; 6), the IC50 in test [1] stood at 30 µM; in test [2], 0.0088 µM; in test [3] it was 100 µM. For the same compound, the Ki in test [4] came to 0.009 µM; in test [5] it was 760 µM.

For the compound `COc1ccccc1C1CC(c2ccc(O)cc2O)=NN1C(C)=O` (stereo in doubt; 11), the IC50 in test [1] turned out to be 40 µM; in test [2], 0.008 µM; in test [3], 130 µM. Further, the inhibitory constant (Ki) came to 0.008 µM in test [4] and 600 µM in test [5].

Turning to `COc1ccccc1C1CC(c2ccc(O)cc2)=NN1C(C)=O` (stereo in doubt; (+)-6), the inhibition constant Ki in test [4] was found to be 0.006 µM; in test [5], 1000 µM.
